{"source": "patent US20020061839A1", "about": "“Serine peptidase modulators” (priority 1998, published 2002)", "key": {"Prolyl oligopeptidase": {"target": "T1, Prolyl oligopeptidase (Homo sapiens, UniProt P48147)", "T1 construct": "Prolyl oligopeptidase was purified from human platelets; from tissue; host or cells: human platelets", "T1 sequence (P48147 1-710)": "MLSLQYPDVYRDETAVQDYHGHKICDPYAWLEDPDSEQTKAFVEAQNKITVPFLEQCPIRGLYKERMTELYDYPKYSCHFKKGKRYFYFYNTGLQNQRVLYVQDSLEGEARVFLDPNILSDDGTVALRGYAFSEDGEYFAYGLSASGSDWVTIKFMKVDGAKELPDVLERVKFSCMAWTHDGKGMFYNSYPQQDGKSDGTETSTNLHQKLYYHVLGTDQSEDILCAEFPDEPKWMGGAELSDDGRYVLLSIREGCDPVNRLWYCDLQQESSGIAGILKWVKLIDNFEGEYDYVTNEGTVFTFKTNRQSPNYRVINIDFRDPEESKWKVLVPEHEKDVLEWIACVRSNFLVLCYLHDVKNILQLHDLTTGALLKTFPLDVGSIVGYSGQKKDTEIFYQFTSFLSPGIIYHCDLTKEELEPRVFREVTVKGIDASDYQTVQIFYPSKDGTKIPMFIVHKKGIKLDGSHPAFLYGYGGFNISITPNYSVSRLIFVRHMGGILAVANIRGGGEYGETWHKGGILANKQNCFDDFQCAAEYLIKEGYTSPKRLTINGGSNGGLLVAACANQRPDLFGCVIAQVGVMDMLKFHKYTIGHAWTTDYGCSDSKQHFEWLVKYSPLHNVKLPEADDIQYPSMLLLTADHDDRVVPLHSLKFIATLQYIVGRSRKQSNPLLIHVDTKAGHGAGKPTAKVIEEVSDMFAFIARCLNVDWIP", "test": "Inhibition of prolyl oligopeptidase (PO), Z-Gly-Pro-AMC substrate", "type": "biochemical", "conditions": "PO from human platelets, 20 min at 37° C.", "protocol": "Prolyl oligopeptidase was purified from human platelets and the enzyme activity was measured using Z—Gly—Pro—AMC (4.4 mM) as the substrate in a K-phosphate buffer 100 mM, pH 7.5 containing 1 EM EDTA, 1 mM dithiothreitol and 1 mM NaN3. The incubation was carried out during 20 min at 37° C. The reaction was stopped by the addition of 5 volumes 1.5 M acetic acid. Fluorescence was measured at 370 and 440 nm as excitation and emission wavelengths respectively. The inhibitors were added at concentrations varying between 1 μM and 1 mM."}, "[1]": {"test": "Systemic and local toxicity in rats", "type": "in vivo", "conditions": "for acute systemic or local toxicity: daily subcutaneous injection of 50 mg/kg (initial dose 100 mg/kg)", "protocol": "They received standard diet and water ad lib. […] Blood was sampled from the central ear artery. Rats and mice were injected subcutaneously or intraperitoneally."}, "[2]": {"system": "human peripheral blood mononuclear cells (PBMC)", "test": "In vitro cytotoxicity in PBMC, trypan blue exclusion", "type": "cell-based", "conditions": "freshly isolated mononuclear cells or phytohemagglutinin stimulated blasts, concentrations up to 100 μM", "protocol": "Peripheral blood mononuclear cells were isolated from buffy coats (obtained from the blood transfusion center of Antwerp). After dilution (¼) in phosphate buffer saline (PBS), cells were layered onto Ficoll-Hypaque density gradient (Pharmacia, Uppsala, Sweden) and centrifuged at room temperature at 550×g during 20 min. The interfaces were collected and washed 3 times in RPMI-1640. Finally the cells were resuspended at 1×10^6 cells/mL in RPMI-1640 containing 10% heat-inactivated foetal calf serum, and antibiotics (penicillin/streptomycin) (Gibco). These freshly isolated cells were used immediately for inhibitor studies or first stimulated with phytohaemagglutinin (Murex diagnostics) at 1 μg/mL during 3 days at 37° C. in a 5% CO2 humidified incubator. Inhibitor (stock solution at −80° C. in phosphate buffer, diluted ex tempore in RPMI-1640) or vehicle alone was added to the cells (5×10^6/test) at different concentrations. After overnight incubation at 37° C., an aliquot was taken for cytotoxicity evaluation by 0.4% trypan blue exclusion. The remaining cells were washed 3 times in PBS and the final cell pellet was solubilised in 200 μL PBS containing 1% v/v Triton X-100 and 100 KIU/mL aprotinin (Bayer) and centrifuged during 10 min at 20000×g. Supernatants were used immediately for enzyme assay and protein determination by the Bradford micro-assay. Specific activities (U/g protein) are compared and the % inhibition is given toward control samples without inhibitor."}, "[3]": {"test": "Side effects in rabbits after intravenous injection", "type": "in vivo", "conditions": "single intravenous injection of 0.2 mg/kg", "protocol": "[…]. They received standard diet and water ad lib. […] Blood was sampled from the central ear artery. Rats and mice were injected subcutaneously or intraperitoneally."}, "in vitro": {"test": "in vitro", "conditions": "human, plasma"}, "[4]": {"test": "Graft acceptance upon alloantigen challenge", "type": "in vivo, rats", "conditions": "monotherapy"}, "Dipeptidyl peptidase II": {"target": "Dipeptidyl peptidase II", "conditions": "DPP II semi-purified from rabbit kidney, pH 5.5, 20 minutes at 37° C.", "method": "After incubation during 20 minutes at 37° C., the reaction was stopped by the addition of 10 fold excess sodium-acetate pH 3.6."}}, "note": "“Also recorded” adds a separate entry of the source."}
{"compound": "C[C@H](NC(=O)OCc1ccccc1)C(=O)Nc1ccc(OP(=O)(Oc2ccc(NC(=O)[C@H](C)NC(=O)OCc3ccccc3)cc2)C2CCCN2C(=O)[C@@H]2CCCN2C(=O)OCc2ccccc2)cc1", "note": "(mixture of isomers) [10j, Di[4-(N-benzyloxycarbonyl-(S)-alanylamino)phenyl]-1-(benzyloxycarbonyl-(S)-prolyl)pyrrolidine-2(R,S)-phosphonate]", "values": [{"measurement": "melting point", "value": "200 to 203", "unit": "°C"}, {"measurement": "IC50", "setting": "Prolyl oligopeptidase", "value": "> 500", "unit": "µM"}]}
{"compound": "O=C1CC[C@@H](C(=O)Nc2ccc(OP(=O)(Oc3ccc(NC(=O)[C@@H]4CCC(=O)N4)cc3)C3CCCN3C(=O)[C@@H]3CCCN3C(=O)OCc3ccccc3)cc2)N1", "note": "(mixture of isomers) [10k, Di[4-((S)-pyroglutamylamino)phenyl]-1-(benzyloxycarbonyl-(S)-prolyl)pyrrolidine-2(R,S)-phosphonate]", "values": [{"measurement": "melting point", "value": "170 °C (dec.)"}, {"measurement": "IC50", "setting": "Prolyl oligopeptidase", "value": 9, "unit": "µM"}]}
{"compound": "CC(=O)Nc1ccc(OP(=O)(Oc2ccc(NC(C)=O)cc2)C2CCCN2C(=O)[C@@H]2CCCN2)cc1.Cl", "note": "(mixture of isomers) [11e, Di(4-acetamidophenyl) 1-((S)-prolyl)pyrrolidine-2(R,S)-phosphonate hydrochloride]", "values": [{"measurement": "acute systemic or local toxicity", "setting": "[1]; rats, hydrochloride", "value": "without any sign of acute systemic or local toxicity; also recorded: no acute systemic or local toxicity"}, {"measurement": "cytotoxicity", "setting": "[2]; hydrochloride", "value": "no cytotoxicity; also recorded: did not show cytotoxicity"}]}
{"compound": "CCOC(=O)CNC(=O)c1ccc(OP(=O)(Oc2ccc(C(=O)NCC(=O)OCC)cc2)C2CCCN2C(=O)[C@@H]2CCCN2)cc1", "note": "(mixture of isomers) [11n, Di{4-[(ethoxycarbonyl)methylaminocarbonyl]phenyl}1-((S)-prolyl)pyrrolidine-2(R,S)-phosphonate]", "values": [{"measurement": "acute systemic or local toxicity", "setting": "[1]; rats", "value": "without any sign of acute systemic or local toxicity; also recorded: no acute systemic or local toxicity"}, {"measurement": "cytotoxicity", "setting": "[2]", "value": "did not show cytotoxicity; also recorded: no cytotoxicity"}, {"measurement": "side effects", "setting": "[3]", "value": "without side effects"}, {"measurement": "half-life at 1 mM", "setting": "in vitro", "value": "0.583 ± 0.0333", "unit": "h"}]}
{"compound": "O=C([C@@H]1CCCN1)N1CCCC1P(=O)(Oc1ccccc1)Oc1ccccc1", "note": "(mixture of isomers) [compound 5, diphenyl 1-(S)-prolyl-pyrrolidine-2-(R,S)-phosphonate]", "values": [{"measurement": "systemic toxicity and local ulcerations", "setting": "[1]; monotherapy", "value": "occasionally also caused systemic toxicity and more often local ulcerations"}, {"measurement": "systemic toxicity", "setting": "[1]; rats, intravenously", "value": "adequate inhibition could not be reached without severe systemic toxicity"}, {"measurement": "half-life at 1 mM", "setting": "in vitro", "value": "4.17 ± 0.167", "unit": "h"}, {"measurement": "graft acceptance", "setting": "[4]", "value": "significantly prolonged graft acceptance"}]}
{"compound": "Cl.O=C([C@@H]1CCCN1)N1CCC[C@H]1P(=O)(Oc1ccccc1)Oc1ccccc1", "note": "[11a (R), Diphenyl 1-((S)-prolyl)pyrrolidine-2(R)-phosphonate hydrochloride]", "values": [{"measurement": "cytotoxicity", "setting": "[2]", "value": "no satisfactory inhibition of DPP IV activity could be reached without cytotoxic effects"}, {"measurement": "half-life at 1 mM", "setting": "in vitro", "value": "5 ± 0.5", "unit": "h"}]}
{"compound": "CC(NC(=O)[C@@H](N)Cc1ccccc1)P(=O)(Oc1ccccc1)Oc1ccccc1", "note": "(stereo partly drawn) [Phe-AlaP(OPh)2, Diphenyl 1(R,S)-L-phenylalanyl aminoethane phosphonate]", "values": [{"measurement": "IC50", "setting": "Dipeptidyl peptidase II", "value": 800, "unit": "µM"}]}
{"compound": "CC(NC(=O)[C@@H]1CCCN1)P(=O)(Oc1ccccc1)Oc1ccccc1", "note": "(stereo partly drawn) [Pro-AlaP(OPh)2, diphenyl 1(R,S)-L-prolyl aminoethane phosphonate]", "values": [{"measurement": "IC50", "setting": "Dipeptidyl peptidase II", "value": 1500, "unit": "µM"}]}
